The results in this text go back to PMC5430874 (Scientific Reports, 2017).

For one assay, the target named is T1, GPR139 E108A^3×32 (Homo sapiens, UniProt Q6DWJ6, E108A).
T1 construct: mGluR5 signal peptide (N); expressed in transfected cells; host or cells: HEK293
T1 sequence (Q6DWJ6 2-353 E108A limits assumed): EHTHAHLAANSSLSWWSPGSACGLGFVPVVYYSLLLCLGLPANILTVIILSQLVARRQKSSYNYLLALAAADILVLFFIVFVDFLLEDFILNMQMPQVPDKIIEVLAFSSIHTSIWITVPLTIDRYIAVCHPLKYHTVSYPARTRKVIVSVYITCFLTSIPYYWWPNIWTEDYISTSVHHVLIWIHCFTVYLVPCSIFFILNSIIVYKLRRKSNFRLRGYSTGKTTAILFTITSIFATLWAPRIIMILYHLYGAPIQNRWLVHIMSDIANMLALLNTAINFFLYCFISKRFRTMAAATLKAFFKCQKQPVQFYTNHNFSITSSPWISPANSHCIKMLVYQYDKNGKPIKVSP
As to the kind of experiment: Fluo-4 Ca2+-assay, GPR139 mutant E108A. Format: cell-based. As to conditions: for EC50: E108A mutant. An excerpt: (§1) To study the influence of specific amino acids in the predicted binding pocket on receptor function, the desired mutations were introduced into an N-terminally c-myc-tagged wild type human GPR139 (NM_001002911.3) in the pEGFP-N1 vector (BD Biosciences)[32], [33]. As previously described, these plasmids carry the signal peptide of mGluR5 to promote cell surface expression followed by a c-myc epitope to enable detection of total and surface expression by ELISA, followed by an engineered MluI and NotI site for easy insertion of the receptor of interest. Furthermore, the start-codon in the GPR139 sequence was deleted to ensure c-myc-tagging. Mutagenesis was designed in Serial Cloner 2.6 (© Franck Perez [SerialBasics]) and carried out by GenScript (USA). All mutated residues are illustrated in Supplementary Fig. 1b. An untagged GPR139(WT) in pEGFP-N1 was also generated to ensure that the c-myc-tag had no influence on GPR139(WT) function.
(§2) All GPR139 mutants were transfected into HEK293 cells. The HEK293 cells were grown in Dulbecco’s modified Eagle’s medium (DMEM) (Gibco, 41965) supplemented with 10% dialyzed fetal bovine serum (Gibco, 26400, United States origin), 100 units/mL penicillin and 100 μg/mL streptomycin (Gibco, 15140). HEK293 cells were reverse transfected using Lipofectamine2000 (Invitrogen). More specifically two mixtures were made: 1) 10 ng DNA/well + 25 μL Opti-MEM/well and 2) […] Lipofectamine2000/well + 25 μL Opti-MEM/well. The two mixtures were mixed and 50 μL/well was added directly in black 96-well plates with flat clear bottoms for the Fluo-4 Ca^2+-assay (Corning, Falcon, 353219) or in white Opaque 96-well Microplate (PerkinElmer Life, 6005680) for ELISA. 100 μL containing 20,000 cells were added to each well and incubated 48 hours before assays. All plates were coated with poly-D-lysine.
(§3) Compound 1a (1a) was kindly provided by H. Lundbeck A/S, Denmark. […] Both compounds were dissolved to 20 mM in DMSO (Sigma, D2650) and subsequently diluted in a HEPES buffer (HBSS (Gibco, 14025) supplemented with 20 mM HEPES + 1 mM MgCl2 + 1 mM CaCl2, pH = 7.4) to a final concentration of 0.5% DMSO in the Fluo-4 Ca^2+-assay. The DMSO level was kept constant for all concentrations of both compounds. DMSO was confirmed not to have any activity by itself at this concentration. L-Trp (T0254) and L -Phe (P2126) were obtained from Sigma-Aldrich and dissolved in buffer.
(§4) The Ca^2+ measurements were preformed using the Fluo-4 NW Calcium Assay Kit (Invitrogen, Molecular Probes, F36206) as previously described. Briefly, the Fluo-4 dye loading solution was prepared according to the manufacturer’s instructions by dissolving it in HEPES-buffer supplemented with 2.5 mM probenecid. 50 μL dye loading solution was added to each well. Cells were incubated with the Fluo-4 dye for 60 min at 37 °C, then washed with 100 μL HEPES-buffer. 100 μL HEPES-buffer supplemented with 2.5 mM probenecid was then added to each well and incubated in 10 minutes at 37 °C before measurement. […] Intracellular calcium changes were recorded as indicated on either a NOVOstar (BMG Labtech) at 37 °C with an excitation filter of 485 nm and an emission filters 520 nm or a FlexStation 3 Benchtop Multi-Mode Microplate Reader (Molecular Devices) at 37 °C with an excitation wavelength of 485 nm and emission of 525 nm.
(§5) All pharmacological data have been analyzed by using Prism 6.0 (GraphPad Software Inc., San Diego). Fitting of concentration response curves was performed by non-linear regression log(agonist) vs. response (four parameters). Pooled data are shown with standard error of the mean (S.E.M.) and data showing one representative are shown with standard deviation (S.D.). Changes in potency (pEC50) and span of myc-GPR139(WT) in comparison to untagged GPR139(WT) was statistically analyzed with a paired t-test and significance was accepted at p < 0.05. The ELISA data were normalized to surface expression of myc-GPR139(WT) (100%). […]

Another assay addresses T2, GPR139 F109L^3×33 (Homo sapiens, UniProt Q6DWJ6, F109L).
T2 construct: mGluR5 signal peptide (N); expressed in transfected cells; host or cells: HEK293
T2 sequence (Q6DWJ6 2-353 F109L limits assumed): T1 sequence (Q6DWJ6 2-353 E108A limits assumed) with A107E, F108L
The assay is described as follows: Fluo-4 Ca2+-assay, GPR139 mutant F109L. Format: cell-based. Conditions: for EC50: F109L mutant.
Source text: as §1, §2, §3, §4, §5

Where [1] appears, read: three independent experiments, read-out: pEC50 ± SEM (converted).
The mark [2] stands for this setting: only one experiment, read-out: pEC50 (converted).

Numbering of substitutions follows the chain as printed. Read-outs that look alike come from different tables or passages of the source. A value given as a limit tells only on which side of the number the result lay.

As usually defined, the Emax is the size of the effect at its maximum, as opposed to the concentration needed. Regarding `C[C@@H](NC(=O)CNC(=O)c1cccc(Cl)c1)c1ccccc1` (racemic) [Compound 7c], the EC50 is 0.151 µM on GPR139 E108A^3×32 (setting [1]) and 3.98 µM on GPR139 F109L^3×33. Also, the Emax worked out at 112 ± 10% on GPR139 E108A^3×32 (read-out: Emax ± SEM) and 102 ± 3% at GPR139 F109L^3×33. Moreover, the change of potency on GPR139 F109L^3×33 (F109L mutant versus WT) is ~ 100 fold.

For `COc1cc(OC)cc(C(=O)NNC(=O)Nc2cccc3ccccc23)c1` [Compound 1a], the change of potency result on GPR139 E108A^3×32 (E108A mutant versus WT) is listed as “no effect”. For the same compound, the values for the EC50 at GPR139 E108A^3×32 (setting [1]) and at GPR139 F109L^3×33 were 0.209 µM and greater than 7.94 µM, respectively. For the same compound, the Emax on GPR139 E108A^3×32 (E108A, normalized to buffer (0%) and 8 μM 1a (100%) on WT, read-out: Emax ± SEM) stood at 151 ± 9%. On GPR139 F109L^3×33 (F109L, at 8 μM, normalized to buffer (0%) and 8 μM 1a (100%) on WT), this compound returned an Emax at 8 µM of 42 ± 16%.

With `N[C@@H](Cc1ccccc1)C(=O)O` [L-Phe, phenylalanine], the EC50 on GPR139 E108A^3×32 (setting [2]) was 251 µM; at GPR139 F109L^3×33, greater than 31600 µM. Moreover, the Emax on GPR139 E108A^3×32 (E108A, normalized to buffer (0%) and 30 mM Phe (100%) on WT, n=1, read-out: Emax) is 127%. In addition, the Emax at 30000 µM at GPR139 F109L^3×33 (F109L, at 30 mM, normalized to buffer (0%) and 30 mM Phe (100%) on WT) was determined as 72 ± 9%.

In the case of `N[C@@H](Cc1c[nH]c2ccccc12)C(=O)O` [L-Trp, tryptophan], the EC50 at GPR139 E108A^3×32 (setting [2]) is 166 µM; at GPR139 F109L^3×33 it was greater than 10000 µM. For the same compound, the Emax on GPR139 E108A^3×32 (E108A, normalized to buffer (0%) and 10 mM Trp (100%) on WT, n=1, read-out: Emax) stood at 125%. For the same compound, the Emax at 10000 µM on GPR139 F109L^3×33 (F109L, at 10 mM, normalized to buffer (0%) and 10 mM Trp (100%) on WT) came out at 60 ± 5%.
